Source: ChEMBL document CHEMBL5665440, “ASAP - In vitro liver microsomal stability” (2024)
Where “and” joins values, the source holds several entries; their conditions need not be identical. Identical values can stand only once.

How the values were obtained:
[1] = (§1) Mouse liver microsomal stability of compound in microsomal protein, PBS buffer pH 7.4, NADPH, glucose-6-phosphate and glucose-6-phosphate dehydrogenase media. Aliquotes were taken at 5 time points and after stopping the reaction, supernatants were analyzed using HPLC coupled with a tandem mass spectrometer. The elimination constant, half-life, and intrinsic clearance are determined as results using linear regression analysis.; assay type: ADME, microsomes, Microsome; conditions: for half-life / microsomal CLint: liver microsomes; for Remaining / Remaining (without cofactor): microsomes
[2] = as §1, with “Human” for “Mouse”; assay type: ADME, microsomes, Microsome; conditions: for half-life / microsomal CLint: liver microsomes
Wherever Remaining (without cofactor) is given: time not given here.
Wherever Remaining is given: time not given here.

half-life [1] [h]	microsomal CLint [1] [µL/min/mg]	Remaining [1] [%]	Remaining (without cofactor) [1] [%]	CLint ([2]; microsomes)	Remaining ([2]; microsomes)	Remaining (without cofactor) ([2]; microsomes)	T1/2 ([2]; microsomes)	half-life [2] [h]	microsomal CLint [2] [µL/min/mg]	Structure (SMILES)
2.52	11	84	98.417	23.218 µL/min/mg and < 10 µL/min/mg	67.537% and 102.526%	101.395% and 117.42%	1.199 h and > 2.888 h	–	–	CC(C)NC(=O)[C@H](Nc1ccc2c(c1)CNC2)c1cc(Cl)cc2[nH]c(-c3ccccc3)nc12
0.212	131	11.381	93.133	–	88.673%	103.344%	–	> 2.89	< 10	CSc1cc2c(cc1NC(=O)c1cc(F)cc3[nH]ncc13)CNC2
> 2.89	< 10	92.112	95.032	–	96.629%	106.229%	–	> 2.89	< 10	CNC(=O)c1cc(Br)cc([C@H](Nc2ccc3c(c2)CNC3)C(=O)NCC(F)F)c1
> 2.89	< 10	87.356	106.991	–	84.663%	102.026%	–	> 2.89	< 10	Nc1ccncc1-c1cc(F)cc(C(=O)Nc2ccc3c(c2)CNC3)c1
